target: T1, a4b7 integrin interaction with MadCAM-1 (Homo sapiens, UniProt P13612+P26010); test: a4b7 Cell Capture Assay (RPMI8866 cells on MAdCAM-1 Fc coated plates); assay type: cell-based; settings: 50% human serum, 1 mM MgCl2, 1 hour incubation, CellTiter-Glo luminescence, read-out: a4B7 cell capture assay RMPI8866-MadCAM EC50
T1 construct: capture of a4b7 integrin expressing cells, RPMI8866; endogenous in cells; host or cells: RPMI8866
T1 sequence (P13612 34-1032): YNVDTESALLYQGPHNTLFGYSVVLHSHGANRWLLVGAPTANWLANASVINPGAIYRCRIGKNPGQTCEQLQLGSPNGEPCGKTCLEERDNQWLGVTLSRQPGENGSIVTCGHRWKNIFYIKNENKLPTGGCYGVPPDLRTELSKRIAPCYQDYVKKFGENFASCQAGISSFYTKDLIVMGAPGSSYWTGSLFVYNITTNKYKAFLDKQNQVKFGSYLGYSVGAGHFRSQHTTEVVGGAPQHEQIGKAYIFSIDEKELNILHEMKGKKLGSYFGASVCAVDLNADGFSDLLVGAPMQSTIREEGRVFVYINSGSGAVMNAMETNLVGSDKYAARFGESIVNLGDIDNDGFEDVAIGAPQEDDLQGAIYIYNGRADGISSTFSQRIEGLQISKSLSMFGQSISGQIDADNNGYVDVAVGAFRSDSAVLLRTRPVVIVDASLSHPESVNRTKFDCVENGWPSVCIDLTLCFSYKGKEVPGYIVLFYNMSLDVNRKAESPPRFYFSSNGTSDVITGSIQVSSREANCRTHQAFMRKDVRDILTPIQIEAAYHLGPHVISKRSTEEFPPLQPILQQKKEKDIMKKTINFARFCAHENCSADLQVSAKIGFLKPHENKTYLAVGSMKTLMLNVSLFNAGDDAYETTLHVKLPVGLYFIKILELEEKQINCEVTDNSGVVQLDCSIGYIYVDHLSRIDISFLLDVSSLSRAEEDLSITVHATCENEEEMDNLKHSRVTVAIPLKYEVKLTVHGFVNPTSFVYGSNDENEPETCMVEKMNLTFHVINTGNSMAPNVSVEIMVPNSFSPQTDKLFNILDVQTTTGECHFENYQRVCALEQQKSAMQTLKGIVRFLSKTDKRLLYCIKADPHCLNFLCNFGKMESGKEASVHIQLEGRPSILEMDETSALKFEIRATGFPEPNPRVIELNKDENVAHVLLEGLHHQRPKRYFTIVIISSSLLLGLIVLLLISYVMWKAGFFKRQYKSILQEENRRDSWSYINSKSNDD
T1 sequence (P26010 20-798): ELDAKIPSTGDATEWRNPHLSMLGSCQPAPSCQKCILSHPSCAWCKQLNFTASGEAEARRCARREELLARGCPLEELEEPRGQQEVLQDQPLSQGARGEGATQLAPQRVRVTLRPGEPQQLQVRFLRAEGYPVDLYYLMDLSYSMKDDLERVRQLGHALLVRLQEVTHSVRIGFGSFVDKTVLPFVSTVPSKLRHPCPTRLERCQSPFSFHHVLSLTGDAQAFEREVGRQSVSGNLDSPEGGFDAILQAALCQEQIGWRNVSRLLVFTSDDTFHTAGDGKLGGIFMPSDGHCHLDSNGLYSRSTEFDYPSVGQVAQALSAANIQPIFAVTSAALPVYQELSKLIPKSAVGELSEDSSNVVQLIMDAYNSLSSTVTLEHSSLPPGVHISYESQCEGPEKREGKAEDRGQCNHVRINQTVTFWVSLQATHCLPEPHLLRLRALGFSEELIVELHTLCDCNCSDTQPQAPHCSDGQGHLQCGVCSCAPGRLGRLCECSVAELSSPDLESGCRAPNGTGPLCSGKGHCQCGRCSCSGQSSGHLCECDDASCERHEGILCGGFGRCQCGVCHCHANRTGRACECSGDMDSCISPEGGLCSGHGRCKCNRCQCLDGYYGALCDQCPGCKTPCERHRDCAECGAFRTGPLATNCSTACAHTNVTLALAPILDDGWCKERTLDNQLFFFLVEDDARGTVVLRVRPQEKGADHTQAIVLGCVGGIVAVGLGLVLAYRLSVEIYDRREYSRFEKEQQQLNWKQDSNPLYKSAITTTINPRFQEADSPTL
In short: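 RPMI8866 cells (1.0×10^6 cells/mL) in 1 mM MgCl2, 25 mM HEPES, 50% human serum were added to plates coated with human MAdCAM-1–IgG1 Fc (1.0 μg/mL) and exposed to compound (9-point, 0.08–1000 nM, 0.1% DMSO) for 1 h at 37 °C. Bound cells were read by CellTiter-Glo luminescence. IC50 came from 4-parameter fit of normalized % inhibition.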

Row | Structure (SMILES) | EC50 [nM]
1 | Cc1cc2cc(c1F)[C@H](CC(=O)O)NC(=O)[C@@H](n1cc(CCN3CC(F)C3)c(C(F)(F)F)cc1=O)c1cc(ccc1F)COc1cccc(C)c1-2 (relative stereo) [Example 36, [(15R*,18S)-13,20-difluoro-15-{5-[2-(3-fluoroazetidin-1-yl)ethyl]-2-oxo-4-(trifluoromethyl)pyridin-1-yl}-3,21-dimethyl-16-oxo-8-oxa-17-azatetracyclo[17.3.1.1^{10,14}.0^{2,7}]tetracosa-1(23),2(7),3,5,10,12,14(24),19,21-nonaen-18-yl]acetic acid] | 5.2
2 | Cc1cc2cc(c1F)[C@H](CC(=O)O)NC(=O)[C@@H](n1cc(CCN3CC(F)C3)c(C(F)(F)F)cc1=O)c1cc(ccc1F)Oc1nn(CC3CC3)cc1-2 (single isomer, unassigned) [Example 60] | 380
3 | Cc1cc2cc(c1F)[C@H](CC(=O)O)NC(=O)[C@@H](n1cc(CCN3CC(F)C3)c(C(F)(F)F)cc1=O)c1cc(ccc1F)COc1cc(C#N)cc(C)c1-2 (single isomer, unassigned) [Example 54] | 27
4 | Cc1cccc2c1-c1cc(c(F)c(C(F)(F)F)c1)[C@H](CC(=O)O)NC(=O)[C@@H](n1cc(CCN3CC(F)C3)c(C(F)(F)F)cc1=O)c1cc(ccc1F)CO2 (relative stereo) [Example 35, [(15R*,18S)-13,20-difluoro-15-{5-[2-(3-fluoroazetidin-1-yl)ethyl]-2-oxo-4-(trifluoromethyl)pyridin-1-yl}-3-methyl-16-oxo-21-(trifluoromethyl)-8-oxa-17-azatetracyclo[17.3.1.1^{10,14}.0^{2,7}]tetracosa-1(23),2(7),3,5,10,12,14(24),19,21-nonaen-18-yl]acetic acid] | 7.7
5 | Cc1cc2cc(c1F)[C@H](CC(=O)O)NC(=O)[C@@H](n1cc(CCN3CC(F)C3)c(C(F)(F)F)cc1=O)c1cc(ccc1F)Oc1ccc(F)cc1-2 (single isomer, unassigned) [Example 52] | 180
6 | Cc1cc2cc(c1F)[C@H](CC(=O)O)NC(=O)[C@@H](n1cc(CCN3CC(F)C3)c(C(F)(F)F)cc1=O)c1cc(ccc1F)Oc1cccc(Cl)c1-2 (relative stereo) [Example 19, [(14R*,17S)-3-chloro-12,19-difluoro-14-{5-[2-(3-fluoroazetidin-1-yl)ethyl]-2-oxo-4-(trifluoromethyl)pyridin-1-yl}-20-methyl-15-oxo-8-oxa-16-azatetracyclo[16.3.1.1^{9,13}.0^{2,7}]tricosa-1(22),2(7),3,5,9,11,13(23),18,20-nonaen-17-yl]acetic acid] | 0.84
7 | Cc1cc2cc(c1F)[C@H](CC(=O)O)NC(=O)[C@@H](n1cc(CCCN(C)C)c(C(F)(F)F)cc1=O)c1cc(ccc1F)Oc1cccc(C)c1-2 (relative stereo) [Example 20, [(14R*,17S)-14-{5-[3-(dimethylamino)propyl]-2-oxo-4-(trifluoromethyl)pyridin-1-yl}-12,19-difluoro-3,20-dimethyl-15-oxo-8-oxa-16-azatetracyclo[16.3.1.1^{9,13}.0^{2,7}]tricosa-1(22),2(7),3,5,9,11,13(23),18,20-nonaen-17-yl]acetic acid] | 0.08
8 | Cc1cc2c(F)c(c1F)[C@H](CC(=O)O)NC(=O)[C@@H](n1cc(CCN3CC(F)C3)c(C(F)(F)F)cc1=O)c1cc(ccc1F)Oc1cccc(C)c1-2 (single isomer, unassigned) [Example 77] | 15
9 | Cc1cc(C)c2c(c1)Oc1ccc(F)c(c1)[C@H](n1cc(CCN3CC(F)C3)c(C(F)(F)F)cc1=O)C(=O)N[C@@H](CC(=O)O)c1cc-2cc(C)c1F (relative stereo) [Example 27, [(14R*,17S)-12,19-difluoro-14-{5-[2-(3-fluoroazetidin-1-yl)ethyl]-2-oxo-4-(trifluoromethyl)pyridin-1-yl}-3,5,20-trimethyl-15-oxo-8-oxa-16-azatetracyclo[16.3.1.1^{9,13}.0^{2,7}]tricosa-1(22),2(7),3,5,9,11,13(23),18,20-nonaen-17-yl]acetic acid] | 3.7
10 | Cc1cc2cc(c1F)[C@H](CC(=O)O)NC(=O)[C@@H](n1cc(CCN3CC(F)C3)c(C(F)(F)F)cc1=O)c1cc(cc(Cl)c1F)COc1cccc(C)c1-2 (single isomer, unassigned) [Example 49] | 4.9
11 | Cc1cc2cc(c1F)[C@H](CC(=O)O)NC(=O)[C@@H](n1ccc(C(F)(F)F)cc1=O)c1cc(ccc1F)Oc1cccc(C)c1-2 (single isomer, unassigned) [Example 42] | 13
12 | Cc1cc2cc(c1F)[C@H](CC(=O)O)NC(=O)[C@@H](n1ccc(C(F)(F)F)cc1=O)c1cc(ccc1F)COc1cccc(C)c1-2 (single isomer, unassigned) [Example 44] | 160
13 | Cc1cccc2c1-c1cc(c(F)c(C(F)(F)F)c1)[C@H](CC(=O)O)NC(=O)[C@@H](n1c(=O)c3ccncc3n(C)c1=O)c1cc(ccc1F)CO2 (single isomer, unassigned) [Example 67] | 190

system: not given; test: not given; settings: from CCOC(=O)C[C@H](N)c1cc(-c2cn(C)nc2Oc2ccc(F)c(C(C(=O)O)n3cc(CCN4CC(F)C4)c(C(F)(F)F)cc3=O)c2)cc(C)c1F; amide bond; 13-membered ring; EDCI/HOBt/DIEA; MeCN; 32.6 mM; 60.0 °C; 6.0 h

Row | Structure (SMILES) | ring closure, isolated yield [%]
14 | CCOC(=O)C[C@@H]1NC(=O)C(n2cc(CCN3CC(F)C3)c(C(F)(F)F)cc2=O)c2cc(ccc2F)Oc2nn(C)cc2-c2cc(C)c(F)c1c2 (some centres unmarked) | 29.9

same assay, conditions: from CCOC(=O)C[C@H](NC(=O)C(c1cc(Br)ccc1F)n1cc(CCN2CC(F)C2)c(C(F)(F)F)cc1=O)c1cc(-c2c(C)cc(N3C4CCC3COC4)cc2O)cc(C)c1F; ether bond; 13-membered ring; CuI/(1R,2R)-N1,N2-dimethylcyclohexane-1,2-diamine/K2CO3; dioxane; 27.5 mM; 100.0 °C; 16.0 h

Row | Structure (SMILES) | ring closure, isolated yield [%]
15 | CCOC(=O)C[C@@H]1NC(=O)C(n2cc(CCN3CC(F)C3)c(C(F)(F)F)cc2=O)c2cc(ccc2F)Oc2cc(N3C4CCC3COC4)cc(C)c2-c2cc(C)c(F)c1c2 (some centres unmarked) | 54.8

same assay, conditions: from CCOC(=O)C[C@H](NC(=O)C(c1cc(Br)ccc1F)n1cc(CCN2CC(F)C2)c(C(F)(F)F)cc1=O)c1cc(-c2c(O)cccc2C(F)(F)F)cc(C)c1F; ether bond; 13-membered ring; CuI/K2CO3/N1,N2-dimethylcyclohexane-1,2-diamine; dioxane; 16.7 mM; 100.0 °C; 16.0 h

Row | Structure (SMILES) | ring closure, isolated yield [%]
16 | CCOC(=O)C[C@@H]1NC(=O)C(n2cc(CCN3CC(F)C3)c(C(F)(F)F)cc2=O)c2cc(ccc2F)Oc2cccc(C(F)(F)F)c2-c2cc(C)c(F)c1c2 (stereo in doubt) | 66.7

same assay, conditions: from CCOC(=O)C[C@H](NC(=O)C(c1cccc(Br)c1)n1cc(CCN(C)C)c(C(F)(F)F)cc1=O)c1cc(-c2c(C)cccc2O)cc(C)c1F; ether bond; 13-membered ring; CuI/K2CO3/(1R,2R)-N1,N2-dimethylcyclohexane-1,2-diamine; 1,4-dioxane; 66.7 mM; 100.0 °C; 16.0 h

Row | Structure (SMILES) | ring closure, isolated yield [%]
17 | CCOC(=O)C[C@@H]1NC(=O)C(n2cc(CCN(C)C)c(C(F)(F)F)cc2=O)c2cccc(c2)Oc2cccc(C)c2-c2cc(C)c(F)c1c2 (stereo in doubt) | 61.3

From patent US20240279214A1, “ALPHA4 BETA7 INEGRIN ANTAGONISTS AND USES THEREOF” (XinThera, Inc., priority 2022, published 2024)
